Data reported in ChEMBL document CHEMBL5291721, “A preclinical secondary pharmacology resource illuminates target-adverse drug reaction associations of marketed drugs” (Nat Commun, 2023).

Legend:
[1] = target: T1, Alpha-2A adrenergic receptor (Homo sapiens, UniProt P08913); format: functional, cell-based
T1 sequence (P08913 whole entry): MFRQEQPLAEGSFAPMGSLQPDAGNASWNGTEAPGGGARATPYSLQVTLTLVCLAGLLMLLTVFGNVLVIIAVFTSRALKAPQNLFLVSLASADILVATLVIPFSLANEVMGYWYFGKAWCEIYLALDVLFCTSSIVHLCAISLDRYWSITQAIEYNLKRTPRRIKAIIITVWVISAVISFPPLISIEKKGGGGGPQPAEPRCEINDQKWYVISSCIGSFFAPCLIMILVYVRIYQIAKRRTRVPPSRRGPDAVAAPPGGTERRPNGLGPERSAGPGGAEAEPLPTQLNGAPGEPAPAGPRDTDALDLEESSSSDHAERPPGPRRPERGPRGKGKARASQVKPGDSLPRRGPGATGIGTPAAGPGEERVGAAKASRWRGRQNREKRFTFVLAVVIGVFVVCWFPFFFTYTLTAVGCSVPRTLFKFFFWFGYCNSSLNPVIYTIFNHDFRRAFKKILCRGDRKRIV

[2] = target: T1, Alpha-2A adrenergic receptor
[3] = target: Beta-1 adrenergic receptor (Homo sapiens, UniProt P08588); format: functional
[4] = target: Neuronal acetylcholine receptor subunit alpha-4 (Homo sapiens, UniProt P43681)
[5] = target: Gamma-aminobutyric acid receptor subunit alpha-1 (Rattus norvegicus, UniProt P62813); format: functional
[6] = target: T2, 5-hydroxytryptamine receptor 3A (Homo sapiens, UniProt P46098); format: functional
T2 sequence (P46098 whole entry): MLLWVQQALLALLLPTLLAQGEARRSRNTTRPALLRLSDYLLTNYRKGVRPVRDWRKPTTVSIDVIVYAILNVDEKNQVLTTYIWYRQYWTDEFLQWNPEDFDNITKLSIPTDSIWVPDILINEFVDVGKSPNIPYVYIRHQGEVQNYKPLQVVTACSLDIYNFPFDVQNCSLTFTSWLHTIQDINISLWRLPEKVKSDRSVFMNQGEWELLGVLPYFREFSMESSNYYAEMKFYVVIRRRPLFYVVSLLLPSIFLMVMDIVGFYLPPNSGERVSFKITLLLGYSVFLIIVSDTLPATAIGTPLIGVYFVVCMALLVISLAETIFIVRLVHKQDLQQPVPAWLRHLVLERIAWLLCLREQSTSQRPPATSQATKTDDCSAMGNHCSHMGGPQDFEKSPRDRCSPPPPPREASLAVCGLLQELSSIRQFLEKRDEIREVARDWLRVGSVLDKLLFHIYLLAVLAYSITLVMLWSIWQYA

[7] = target: cGMP-inhibited 3',5'-cyclic phosphodiesterase 3A (Homo sapiens, UniProt Q14432); format: functional
[8] = target: 3',5'-cyclic-AMP phosphodiesterase 4A (Homo sapiens, UniProt P27815); format: functional
Progesterone receptor = target: T3, Progesterone receptor (Homo sapiens, UniProt P06401)
T3 sequence (P06401 whole entry): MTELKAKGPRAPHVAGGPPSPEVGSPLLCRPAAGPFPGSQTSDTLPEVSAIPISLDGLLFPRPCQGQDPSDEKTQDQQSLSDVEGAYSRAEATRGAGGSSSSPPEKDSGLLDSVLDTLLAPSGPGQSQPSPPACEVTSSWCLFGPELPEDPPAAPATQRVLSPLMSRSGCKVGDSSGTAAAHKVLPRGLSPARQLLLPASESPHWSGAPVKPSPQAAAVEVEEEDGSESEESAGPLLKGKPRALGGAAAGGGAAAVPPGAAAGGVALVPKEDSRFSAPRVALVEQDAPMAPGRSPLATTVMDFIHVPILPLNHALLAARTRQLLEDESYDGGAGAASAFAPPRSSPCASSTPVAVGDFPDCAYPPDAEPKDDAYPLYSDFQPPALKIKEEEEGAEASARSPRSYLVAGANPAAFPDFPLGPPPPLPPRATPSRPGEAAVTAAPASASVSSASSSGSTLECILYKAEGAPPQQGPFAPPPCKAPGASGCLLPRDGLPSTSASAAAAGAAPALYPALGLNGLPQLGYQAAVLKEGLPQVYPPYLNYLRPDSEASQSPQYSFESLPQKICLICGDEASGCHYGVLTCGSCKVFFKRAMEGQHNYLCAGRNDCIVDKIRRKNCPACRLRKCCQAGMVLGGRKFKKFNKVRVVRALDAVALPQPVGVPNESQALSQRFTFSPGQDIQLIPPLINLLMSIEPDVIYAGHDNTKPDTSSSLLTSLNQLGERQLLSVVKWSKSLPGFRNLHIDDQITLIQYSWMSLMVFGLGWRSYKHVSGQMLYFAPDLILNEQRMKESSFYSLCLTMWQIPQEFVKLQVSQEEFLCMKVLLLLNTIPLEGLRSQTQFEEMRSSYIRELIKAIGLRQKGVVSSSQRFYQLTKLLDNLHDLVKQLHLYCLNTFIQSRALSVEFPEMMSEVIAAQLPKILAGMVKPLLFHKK

[9] = target: Prostaglandin G/H synthase 1 (Homo sapiens, UniProt P23219); format: functional
[10] = target: T4, 5-hydroxytryptamine receptor 1A (Homo sapiens, UniProt P08908); format: functional, cell-based
T4 sequence (P08908 whole entry): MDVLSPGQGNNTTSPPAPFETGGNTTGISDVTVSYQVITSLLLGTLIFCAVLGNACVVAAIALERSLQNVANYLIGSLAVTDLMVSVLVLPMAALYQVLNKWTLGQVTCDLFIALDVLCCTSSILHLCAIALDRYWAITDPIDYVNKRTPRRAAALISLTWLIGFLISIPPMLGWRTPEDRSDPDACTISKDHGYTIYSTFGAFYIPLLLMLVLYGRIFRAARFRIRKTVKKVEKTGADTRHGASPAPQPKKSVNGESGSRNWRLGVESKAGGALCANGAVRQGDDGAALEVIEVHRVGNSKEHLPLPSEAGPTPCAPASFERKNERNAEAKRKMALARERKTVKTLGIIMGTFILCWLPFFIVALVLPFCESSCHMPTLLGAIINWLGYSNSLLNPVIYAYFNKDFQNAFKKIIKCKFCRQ

Cannabinoid receptor 1 [11] = target: T5, Cannabinoid receptor 1 (Homo sapiens, UniProt P21554); format: functional, cell-based
Cannabinoid receptor 1 [12] = target: T5, Cannabinoid receptor 1; format: functional, cell-based; remark: listed apart in the source
Also: assay procedure not described here.

Sequence of Gamma-aminobutyric acid receptor subunit alpha-1 (P62813 whole entry): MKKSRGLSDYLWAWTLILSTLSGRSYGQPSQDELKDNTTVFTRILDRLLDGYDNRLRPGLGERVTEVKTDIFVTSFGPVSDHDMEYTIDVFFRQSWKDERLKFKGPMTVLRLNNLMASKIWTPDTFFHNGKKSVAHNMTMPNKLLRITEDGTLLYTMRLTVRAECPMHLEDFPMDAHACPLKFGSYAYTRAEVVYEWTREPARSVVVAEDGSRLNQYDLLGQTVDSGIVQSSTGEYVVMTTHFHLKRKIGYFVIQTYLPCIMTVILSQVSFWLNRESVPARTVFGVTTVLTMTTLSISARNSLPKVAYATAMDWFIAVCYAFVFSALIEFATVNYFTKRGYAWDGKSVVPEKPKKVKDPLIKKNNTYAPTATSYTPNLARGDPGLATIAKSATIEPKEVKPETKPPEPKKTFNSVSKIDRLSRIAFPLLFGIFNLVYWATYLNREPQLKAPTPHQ
Sequence of cGMP-inhibited 3',5'-cyclic phosphodiesterase 3A (Q14432 whole entry): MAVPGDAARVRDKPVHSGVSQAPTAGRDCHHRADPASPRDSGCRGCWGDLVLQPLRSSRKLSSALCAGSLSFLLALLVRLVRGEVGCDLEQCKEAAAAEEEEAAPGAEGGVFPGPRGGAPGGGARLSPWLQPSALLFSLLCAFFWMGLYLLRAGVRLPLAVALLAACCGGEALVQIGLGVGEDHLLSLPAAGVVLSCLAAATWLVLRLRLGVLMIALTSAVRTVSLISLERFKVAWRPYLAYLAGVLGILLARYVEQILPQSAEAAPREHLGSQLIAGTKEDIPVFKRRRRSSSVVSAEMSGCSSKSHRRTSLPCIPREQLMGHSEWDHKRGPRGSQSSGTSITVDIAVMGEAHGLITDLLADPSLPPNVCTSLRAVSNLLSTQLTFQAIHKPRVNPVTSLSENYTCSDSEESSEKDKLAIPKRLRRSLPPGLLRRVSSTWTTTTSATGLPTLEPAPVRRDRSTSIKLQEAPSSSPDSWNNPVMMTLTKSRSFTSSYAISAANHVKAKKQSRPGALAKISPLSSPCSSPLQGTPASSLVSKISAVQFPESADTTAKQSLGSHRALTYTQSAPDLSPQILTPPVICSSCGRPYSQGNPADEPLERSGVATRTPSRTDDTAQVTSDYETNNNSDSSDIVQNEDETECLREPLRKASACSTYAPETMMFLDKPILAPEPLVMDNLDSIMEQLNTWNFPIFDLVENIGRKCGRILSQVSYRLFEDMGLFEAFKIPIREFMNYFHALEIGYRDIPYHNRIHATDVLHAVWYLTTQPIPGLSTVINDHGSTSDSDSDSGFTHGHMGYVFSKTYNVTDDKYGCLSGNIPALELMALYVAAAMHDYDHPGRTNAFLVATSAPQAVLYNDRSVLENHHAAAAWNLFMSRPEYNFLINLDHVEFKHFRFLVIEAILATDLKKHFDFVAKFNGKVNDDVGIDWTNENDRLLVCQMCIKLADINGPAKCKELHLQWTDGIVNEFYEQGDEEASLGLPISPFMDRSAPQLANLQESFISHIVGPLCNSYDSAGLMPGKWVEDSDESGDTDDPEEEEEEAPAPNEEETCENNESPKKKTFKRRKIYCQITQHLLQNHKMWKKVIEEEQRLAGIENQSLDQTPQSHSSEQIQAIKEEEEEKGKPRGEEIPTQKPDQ
Sequence of 3',5'-cyclic-AMP phosphodiesterase 4A (P27815 whole entry): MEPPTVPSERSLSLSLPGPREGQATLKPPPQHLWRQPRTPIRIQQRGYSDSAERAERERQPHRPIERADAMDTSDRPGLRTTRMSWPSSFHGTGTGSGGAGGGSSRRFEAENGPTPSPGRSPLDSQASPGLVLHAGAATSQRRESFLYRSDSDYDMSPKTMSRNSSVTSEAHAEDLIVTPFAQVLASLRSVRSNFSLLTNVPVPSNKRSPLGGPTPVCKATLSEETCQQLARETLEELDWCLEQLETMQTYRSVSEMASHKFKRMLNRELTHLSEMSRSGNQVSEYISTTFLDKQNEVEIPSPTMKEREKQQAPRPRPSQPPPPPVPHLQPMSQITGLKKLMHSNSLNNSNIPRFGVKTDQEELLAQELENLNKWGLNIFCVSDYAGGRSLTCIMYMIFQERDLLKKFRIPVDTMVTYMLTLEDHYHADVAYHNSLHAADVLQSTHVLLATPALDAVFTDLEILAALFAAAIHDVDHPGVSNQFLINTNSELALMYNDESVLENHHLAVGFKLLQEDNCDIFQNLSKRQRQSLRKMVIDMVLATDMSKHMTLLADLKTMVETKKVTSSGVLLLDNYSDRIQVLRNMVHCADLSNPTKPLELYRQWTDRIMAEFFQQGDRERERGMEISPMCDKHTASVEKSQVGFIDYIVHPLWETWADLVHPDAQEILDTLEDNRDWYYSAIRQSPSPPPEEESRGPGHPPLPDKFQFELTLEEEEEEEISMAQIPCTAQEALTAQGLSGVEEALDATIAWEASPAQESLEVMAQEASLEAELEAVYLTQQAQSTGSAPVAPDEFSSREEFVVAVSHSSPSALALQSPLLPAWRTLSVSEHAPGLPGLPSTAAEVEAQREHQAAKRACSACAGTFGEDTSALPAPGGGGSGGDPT
Sequence of Neuronal acetylcholine receptor subunit alpha-4 (P43681 whole entry): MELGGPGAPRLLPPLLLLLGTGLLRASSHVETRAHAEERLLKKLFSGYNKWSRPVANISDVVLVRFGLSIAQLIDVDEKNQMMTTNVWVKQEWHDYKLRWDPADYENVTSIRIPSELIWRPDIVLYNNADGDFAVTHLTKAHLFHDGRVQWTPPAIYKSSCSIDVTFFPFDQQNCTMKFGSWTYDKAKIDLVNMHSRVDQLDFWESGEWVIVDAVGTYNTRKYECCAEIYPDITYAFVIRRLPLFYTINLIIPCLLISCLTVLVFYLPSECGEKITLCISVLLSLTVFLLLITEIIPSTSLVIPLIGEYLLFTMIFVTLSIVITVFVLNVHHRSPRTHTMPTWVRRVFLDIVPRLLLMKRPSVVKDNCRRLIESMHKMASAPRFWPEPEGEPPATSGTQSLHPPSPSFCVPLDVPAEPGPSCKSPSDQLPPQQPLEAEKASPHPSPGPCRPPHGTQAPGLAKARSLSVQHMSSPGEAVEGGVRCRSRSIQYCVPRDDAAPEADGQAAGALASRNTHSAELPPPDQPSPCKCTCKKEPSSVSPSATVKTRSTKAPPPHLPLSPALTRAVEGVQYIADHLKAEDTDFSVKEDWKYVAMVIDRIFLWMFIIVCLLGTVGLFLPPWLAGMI
Sequence of Beta-1 adrenergic receptor (P08588 whole entry): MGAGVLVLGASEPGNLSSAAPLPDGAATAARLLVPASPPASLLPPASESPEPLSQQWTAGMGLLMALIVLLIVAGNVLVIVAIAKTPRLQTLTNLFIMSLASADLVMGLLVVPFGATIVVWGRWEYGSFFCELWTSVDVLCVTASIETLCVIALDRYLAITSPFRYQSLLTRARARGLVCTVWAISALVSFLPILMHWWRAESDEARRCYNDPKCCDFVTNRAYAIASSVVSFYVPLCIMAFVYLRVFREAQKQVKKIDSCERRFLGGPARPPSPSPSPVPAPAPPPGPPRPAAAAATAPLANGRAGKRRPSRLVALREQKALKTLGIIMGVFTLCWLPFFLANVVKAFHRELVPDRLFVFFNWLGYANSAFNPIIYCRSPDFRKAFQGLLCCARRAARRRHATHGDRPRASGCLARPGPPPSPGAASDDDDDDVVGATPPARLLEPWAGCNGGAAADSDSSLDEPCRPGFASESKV
Sequence of Prostaglandin G/H synthase 1 (P23219 whole entry): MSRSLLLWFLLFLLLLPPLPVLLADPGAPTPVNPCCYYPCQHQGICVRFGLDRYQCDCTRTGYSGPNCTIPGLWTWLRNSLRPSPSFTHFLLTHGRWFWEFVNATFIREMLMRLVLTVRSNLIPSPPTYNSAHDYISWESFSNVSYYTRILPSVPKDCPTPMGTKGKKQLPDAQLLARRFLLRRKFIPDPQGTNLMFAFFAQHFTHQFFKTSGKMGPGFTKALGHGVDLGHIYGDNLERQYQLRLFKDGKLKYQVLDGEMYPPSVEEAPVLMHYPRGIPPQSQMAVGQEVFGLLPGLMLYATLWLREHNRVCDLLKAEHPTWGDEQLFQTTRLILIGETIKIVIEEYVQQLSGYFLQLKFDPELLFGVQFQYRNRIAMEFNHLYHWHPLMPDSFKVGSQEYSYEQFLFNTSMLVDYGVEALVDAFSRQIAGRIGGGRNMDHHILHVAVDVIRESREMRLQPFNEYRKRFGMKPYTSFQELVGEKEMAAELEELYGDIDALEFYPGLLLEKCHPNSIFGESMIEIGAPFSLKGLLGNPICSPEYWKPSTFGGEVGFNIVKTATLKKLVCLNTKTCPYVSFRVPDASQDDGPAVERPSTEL
T5 sequence (P21554 whole entry): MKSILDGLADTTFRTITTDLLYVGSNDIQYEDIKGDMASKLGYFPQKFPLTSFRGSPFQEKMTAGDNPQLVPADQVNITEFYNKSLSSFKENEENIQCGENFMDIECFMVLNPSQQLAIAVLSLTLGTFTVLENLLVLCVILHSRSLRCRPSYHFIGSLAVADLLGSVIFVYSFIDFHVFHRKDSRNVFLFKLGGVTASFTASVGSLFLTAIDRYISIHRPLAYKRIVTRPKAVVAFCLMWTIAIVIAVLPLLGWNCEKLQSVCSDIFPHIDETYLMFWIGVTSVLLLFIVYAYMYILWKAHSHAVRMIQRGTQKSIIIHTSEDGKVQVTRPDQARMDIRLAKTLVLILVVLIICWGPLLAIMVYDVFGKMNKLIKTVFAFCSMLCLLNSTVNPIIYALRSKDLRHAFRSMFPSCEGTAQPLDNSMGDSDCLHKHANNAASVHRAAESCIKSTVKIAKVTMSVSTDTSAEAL

Row | SMILES | AC50 [1] [µM] | AC50 [2] [µM] | AC50 [3] [µM] | AC50 [4] [µM] | AC50 [5] [µM] | AC50 [6] [µM] | AC50 [7] [µM] | AC50 [8] [µM] | AC50 (Progesterone receptor) [µM] | AC50 [9] [µM] | AC50 [10] [µM] | AC50 (Cannabinoid receptor 1 [11]) [µM] | AC50 (Cannabinoid receptor 1 [12]) [µM]
1 | CCCN(CCC)C(=O)Cc1c(-c2ccc(Cl)cc2)nc2ccc(Cl)cn12 [ALPIDEM] | > 30 | > 30 | > 30 | > 30 | 0.0431 | > 30 | > 30 | > 30 | > 30 | > 30 | – | – | –
2 | CC(C(=O)O)c1ccc2c(c1)[nH]c1ccc(Cl)cc12 (centres undefined) [CARPROFEN] | > 10 | – | > 30 | > 30 | > 10 | > 30 | – | – | – | – | > 10 | – | –
3 | O=C1CN(/N=C/c2ccc(-c3ccc([N+](=O)[O-])cc3)o2)C(O)=N1 [DANTROLENE] | > 10 | – | > 10 | > 10 | > 10 | > 30 | – | – | – | – | > 10 | – | –
4 | C=CCN1CC[C@]23CCCC[C@H]2[C@H]1Cc1ccc(O)cc13 [LEVALLORPHAN] | – | > 30 | – | – | – | – | > 30 | > 30 | > 30 | > 30 | – | – | –
5 | C[N+](C)(C)C[C@H](O)CC(=O)[O-] [LEVOCARNITINE] | – | > 30 | – | – | – | – | > 30 | > 30 | > 30 | > 30 | – | – | –
6 | CN1CCCCC1CCN1c2ccccc2Sc2ccc([S+](C)[O-])cc21 (centres undefined) [MESORIDAZINE] | – | 2.59 | – | – | – | – | > 30 | > 30 | > 30 | > 30 | – | – | –
7 | Cc1ccccc1C(=O)Nc1ccc(C(=O)N2CCCC(N(C)C)c3ccccc32)cc1 (centres undefined) [MOZAVAPTAN] | – | > 30 | – | – | – | – | > 30 | > 30 | > 30 | > 30 | – | – | –
8 | CC(=O)O[C@]1(C(C)=O)CC[C@H]2[C@@H]3C=C(C)C4=CC(=O)CC[C@@H]4[C@H]3CC[C@@]21C [NOMEGESTROL ACETATE] | > 30 | > 30 | > 30 | > 30 | 2.5 | > 30 | > 30 | > 30 | 0.003 | > 30 | – | > 30 | > 30
9 | O=C(O)c1cc(/N=N/c2ccc(O)c(C(=O)O)c2)ccc1O [OLSALAZINE] | – | > 30 | – | – | – | – | > 30 | 13.2 | > 30 | > 30 | – | – | –
10 | CCOC(=O)C1=C[C@@H](OC(CC)CC)[C@H](NC(C)=O)[C@@H](N)C1 [OSELTAMIVIR] | – | > 30 | – | – | – | – | > 30 | > 30 | > 30 | > 30 | – | – | –
11 | Cc1onc(-c2ccccc2)c1C(=O)N[C@@H]1C(=O)N2[C@@H]1SC(C)(C)[C@@H]2C(=O)O [OXACILLIN] | – | > 30 | – | – | – | – | > 30 | > 30 | > 30 | > 30 | – | – | –
12 | CCOC(=O)c1c(C)cc2c(CO)n[nH]c(=O)c2c1C [OXAGRELATE] | – | > 30 | – | – | – | – | 6.48 | > 30 | > 30 | > 30 | – | – | –
13 | CCn1cc(C(=O)O)c(=O)c2cc3c(cc21)OCO3 [OXOLINIC ACID] | – | > 30 | – | – | – | – | > 30 | > 30 | > 30 | > 30 | – | – | –
14 | FC(F)(F)c1ccc(CNc2ccc(Cc3c[nH]c4ncc(Cl)cc34)cn2)cn1 [PEXIDARTINIB] | – | 17.1 | – | – | – | – | > 30 | > 30 | 9.95 | > 30 | – | – | –
15 | Nc1ccc(C(=O)Oc2ccccc2)c(O)c1 [PHENYL AMINOSALICYLATE] | – | > 30 | – | – | – | – | > 30 | 14.5 | > 30 | > 30 | – | – | –
16 | CN1CCC(=C2c3ccccc3Sc3ccccc32)CC1 [PIMETHIXENE] | – | 0.0422 | – | – | – | – | > 30 | > 30 | > 30 | > 30 | – | – | –
17 | [H]/N=C(\N/C(=N/[H])Nc1ccc(Cl)cc1)NC(C)C [PROGUANIL] | – | 11.9 | – | – | – | – | > 30 | > 30 | > 30 | > 30 | – | – | –
18 | CC(CN1CC(=O)NC(=O)C1)N1CC(=O)NC(=O)C1 (centres undefined) [RAZOXANE] | – | > 30 | – | – | – | – | > 30 | > 30 | > 30 | 20.4 | – | – | –
19 | CC[C@@]1(O)C(=O)OCc2c1cc1n(c2=O)Cc2cc3c([N+](=O)[O-])cccc3nc2-1 [RUBITECAN] | – | > 30 | – | – | – | – | > 30 | > 30 | > 30 | 26.8 | – | – | –
20 | N[C@@H](CO)C(=O)O [SERINE] | – | > 30 | – | – | – | – | > 30 | > 30 | > 30 | > 30 | – | – | –
21 | OC[C@@H](O)[C@@H](O)[C@H](O)[C@@H](O)CO [SORBITOL] | – | > 30 | – | – | – | – | > 30 | > 30 | > 30 | > 30 | – | – | –
22 | CC(C)OC(=O)CCC/C=C\C[C@@H]1[C@@H](/C=C/C(F)(F)COc2ccccc2)[C@H](O)C[C@@H]1O [TAFLUPROST] | – | > 30 | – | – | – | – | > 30 | > 30 | > 30 | > 30 | – | – | –
23 | C[C@]1(Cn2ccnn2)[C@H](C(=O)O)N2C(=O)C[C@H]2S1(=O)=O [TAZOBACTAM] | – | > 30 | – | – | – | – | > 30 | > 30 | > 30 | > 30 | – | – | –
24 | CC[C@H]1OC(=O)[C@H](C)C(=O)[C@H](C)[C@@H](O[C@@H]2O[C@H](C)C[C@H](N(C)C)[C@H]2O)[C@](C)(OC)C[C@@H](C)C(=O)[C@H](C)[C@H]2N(CCCCn3cnc(-c4cccnc4)c3)C(=O)O[C@]12C [TELITHROMYCIN] | – | > 30 | – | – | – | – | > 30 | > 30 | > 30 | > 30 | – | – | –
25 | CC(=O)Oc1cc(C(F)(F)F)ccc1C(=O)O [TRIFLUSAL] | – | > 30 | – | – | – | – | > 30 | > 30 | > 30 | > 30 | – | – | –
